Experimental data published in patent US5032398A, “Selective modification of the catalytic subunit of pertussis toxin” (priority 1986, dated 1991).

Key:
[1] = biological target: T1, pertussis toxin (Bordetella pertussis, UniProt P04977); assay: Inactivation of NADase activity by sulfhydryl reagents, 6 minutes or 18 hours at 0-4° (Example Eight); format: biochemical
Method: (§1) Pertussis toxin was incubated at 37° C. for fifteen minutes as described in Example Six, and then a second incubation was begun by adding 10 μl buffer A with or without 12.5 mM iodoacetate, mixing the contents of the tube and lowering the temperature to 30° C. After fifteen minutes, the tubes were shifted to an ice bath for ten minutes. A third incubation was then begun by adding 10 μl buffer A containing 200 mM DTT to those tubes containing iodoacetate to scavenge the iodoacetate. To those tubes not containing iodoacetate during the second incubation, a mixture of 200 mM DTT and 12.5 mM iodoacetate in buffer A, previously incubated for an hour on ice, was added. The third incubation was continued for one hour on ice.
(§2) The contents of each tube were then assayed for NADase activity by adding 40 μl of a reaction mix consisting of buffer A containing carbon-14 labelled NAD (final concentration in the 100 μl final volume was 25 μM), and 50 mM sodium chloride. Different reaction mixtures with various additions were used, so that in all tubes the final concentration of ATP was 1 mM and CHAPS was 1 weight percent. The assay was conducted at 37° C. for sixty minutes, and the released labelled nicotinimide was isolated and counted. The iced controls were formed by incubating pertussis toxin (1 μg) on ice in 10 mM sodium phosphate (pH 7) and 50 mM sodium chloride during the first three incubations. […] The first three incubations were done under a nitrogen atmosphere using degassed conditions, and the second and third incubations were done under subdued light.
The procedure followed in Example Seven was repeated for this study, except that N-ethylmaleimide, chloroacetamide or chloroacetate were substituted for iodoacetate. After the 30° C. incubation, the tubes were either incubated for six minutes or eighteen hours at 0°-4° C. before the 10 μl of 200 mM DTT (with or without quenched reagent) was added. Those tubes receiving the DTT after six minutes were incubated for nineteen hours at 0°-4° C. prior to the NADase assay. Those receiving the DTT after eighteen hours were incubated with DTT for one hour, as in Example Seven. The tubes were then assayed for NADase activity at the same time.

[2] = biological target: T1, pertussis toxin; assay: Inactivation of NADase activity by iodoacetate after different activator combinations (Example Seven); format: biochemical
Method: Pertussis toxin was incubated first at 37° C. for fifteen minutes in […] buffer A (100 mM Tris-HCl, pH 8.0 with 1 mM NaEDTA). EDTA was added to chelate divalent cations, which may promote oxidation of free --SH groups. During this incubation, DTT and ATP were present in concentrations of 1 mM each, and CHAPS was present in a concentration of 1 weight percent. Labelled iodoacetate was then added ([…], 12.5 mM), and the tube incubated on ice for twenty hours. The sample was then mixed with sodium dodecylsulfate and β-mercaptoethanol, heated at 95° C. for one minute, and electrophoresed. After electrophoresis, the gel was fixed, treated with Fluorohance (Research Products International), dried and used to expose x-ray film.
as §1, §2

[3] = first incubation: ATP, CHAPS, 18 hours at 0-4°
[4] = first incubation: ATP, DTT, CHAPS, 6 minutes at 0-4°
[5] = first incubation: ATP, DTT, CHAPS, 18 hours at 0-4°
[6] = first incubation: CHAPS, 18 hours at 0-4°
[7] = first incubation: DTT, CHAPS, 18 hours at 0-4°
[8] = first incubation: none, 15 minutes at 30° C. followed by 18 hours at 0-4°

T1 sequence (P04977 35-269 limits assumed): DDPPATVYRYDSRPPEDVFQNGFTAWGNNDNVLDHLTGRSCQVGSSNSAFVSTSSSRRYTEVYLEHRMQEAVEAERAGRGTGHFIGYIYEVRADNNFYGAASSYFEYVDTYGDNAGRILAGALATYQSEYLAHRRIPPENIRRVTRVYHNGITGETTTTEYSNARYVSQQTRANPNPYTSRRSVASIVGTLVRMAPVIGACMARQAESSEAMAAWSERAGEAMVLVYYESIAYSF

O=C(O)CI [iodoacetate]
NADase activity [1, 3]: 110 pmol per μg per hour
percent of activity with no addition to second incubation [1, 3]: 85%
NADase activity [1, 4]: 17 pmol per μg per hour
percent of activity with no addition to second incubation [1, 4]: 17%
NADase activity [1, 5]: 3 pmol per μg per hour
percent of activity with no addition to second incubation [1, 5]: 3%
NADase activity [1, 6]: 171 pmol per μg per hour
percent of activity with no addition to second incubation [1, 6]: 92%
NADase activity [1, 7]: 151 pmol per μg per hour
percent of activity with no addition to second incubation [1, 7]: 79%
NADase activity [1, 8]: 59 pmol per μg per hour
percent of activity with no addition to second incubation [1, 8]: 116%
Time to inactivate toxin ([2]; at 30° C.): within about fifteen minutes
Percent NADase activity relative to no addition to second incubation ([2]; first incubation: ATP): 153
Percent NADase activity relative to no addition to second incubation ([2]; first incubation: ATP, CHAPS): 80
Percent NADase activity relative to no addition to second incubation ([2]; first incubation: ATP, DTT): 107
Percent NADase activity relative to no addition to second incubation ([2]; first incubation: ATP, DTT, CHAPS): 14
Percent NADase activity relative to no addition to second incubation ([2]; first incubation: CHAPS): 108
Percent NADase activity relative to no addition to second incubation ([2]; first incubation: DTT): 123
Percent NADase activity relative to no addition to second incubation ([2]; first incubation: DTT, CHAPS): 84
Percent NADase activity relative to no addition to second incubation ([2]; first incubation: none): 87
